From ChEMBL document CHEMBL5385961, “In vitro and in vivo evaluation of novel chromeno[2,3-d]pyrimidinones as therapeutic agents for triple negative breast cancer” (RSC Med Chem, 2024)
Activity calls are given as the source filed them. The rule behind the calls is not given here.

Key:
[1] = tested on: Hs-578T; assay: Cytotoxicity against human Hs-578T cells assessed as inhibition of cell growth incubated for 72 hrs by SRB assay; format: functional, cell-based
[2] = Cytotoxicity against human MCF-10A cells assessed as inhibition of cell growth incubated for 72 hrs by SRB assay; format: toxicity, cell-based
[3] = species on record: Homo sapiens; assay: Selectivity index, ratio of IC50 for human MCF-10A cells to IC50 for human Hs-578T cells
[4] = tested on: Hs-578T; assay: Cytotoxicity against human Hs-578T cells assessed as reduction in cell proliferation at 0.5 times IC50 measured after 24 hrs by BrdU incorporation assay relative to control; format: functional; parameters: scale not given: the % may be the effect or the level left
[5] = tested on: Hs-578T; assay: Cytotoxicity against human Hs-578T cells assessed as reduction in cell proliferation at IC50 measured after 24 hrs by BrdU incorporation assay relative to control; format: functional; parameters: scale not given: the % may be the effect or the level left
[6] = tested on: Hs-578T; assay: Cytotoxicity against human Hs-578T cells assessed as reduction in cell proliferation at 0.5 times IC50 measured after 48 hrs by BrdU incorporation assay relative to control; format: functional; parameters: scale not given: the % may be the effect or the level left
[7] = tested on: Hs-578T; assay: Cytotoxicity against human Hs-578T cells assessed as reduction in cell proliferation at IC50 measured after 48 hrs by BrdU incorporation assay relative to control; format: functional; parameters: scale not given: the % may be the effect or the level left
[8] = tested on: Hs-578T; assay: Induction of apoptosis in human Hs-578T cells assessed as increase in cleaved PARP level at IC50 measured after 24 to 48 hrs by Western blot analysis; format: functional, cell-based; conditions: time 24-48 hrs
[9] = tested on: Hs-578T; assay: Induction of apoptosis in human Hs-578T cells assessed as increase in caspase-8 protein expression at IC50 measured after 24 hrs by Western blot analysis; format: functional, cell-based
[10] = tested on: Hs-578T; assay: Induction of apoptosis in human Hs-578T cells assessed as increase in caspase-8 protein expression at IC50 measured after 48 hrs by Western blot analysis; format: functional, cell-based
[11] = tested on: Hs-578T; assay: Induction of apoptosis in human Hs-578T cells assessed as increase in caspase-9 protein expression at IC50 measured after 24 to 48 hrs by Western blot analysis; format: functional, cell-based; conditions: time 24-48 hrs
[12] = tested on: Hs-578T; assay: Induction of apoptosis in human Hs-578T cells assessed as increase in BID protein expression at IC50 measured after 24 to 48 hrs by Western blot analysis; format: functional, cell-based; conditions: time 24-48 hrs
[13] = tested on: Hs-578T; assay: Induction of apoptosis in human Hs-578T cells assessed as increase in BAD protein expression at IC50 measured after 24 to 48 hrs by Western blot analysis; format: functional, cell-based; conditions: time 24-48 hrs
[14] = tested on: Hs-578T; assay: Induction of apoptosis in human Hs-578T cells assessed as reduction in viable cells at IC50 measured after 24 to 48 hrs by Annexin V-FITC/PI staining based flow cytometry analysis; format: functional, cell-based; conditions: time 24-48 hrs
[15] = tested on: Hs-578T; assay: Induction of apoptosis in human Hs-578T cells assessed as increase in early apoptotic cells at IC50 measured after 24 to 48 hrs by Annexin V-FITC/PI staining based flow cytometry analysis; format: functional, cell-based; conditions: time 24-48 hrs
[16] = tested on: Hs-578T; assay: Induction of apoptosis in human Hs-578T cells assessed as increase in late apoptotic cells at IC50 measured after 24 hrs by Annexin V-FITC/PI staining based flow cytometry analysis; format: functional, cell-based
[17] = tested on: Hs-578T; assay: Induction of cell cycle arrest in human Hs-578T cells assessed as reduction in G0/G1 cell population at IC50 measured after 24 to 48 hrs by RNase/PI staining based flow cytometry analysis; format: functional; conditions: time 24-48 hrs
[18] = tested on: Hs-578T; assay: Induction of cell cycle arrest in human Hs-578T cells assessed as accumulation of cells at S phase at IC50 measured after 24 hrs by RNase/PI staining based flow cytometry analysis; format: functional
[19] = tested on: Hs-578T; assay: Induction of cell cycle arrest in human Hs-578T cells assessed as accumulation of cells at G2/M phase at IC50 measured after 24 hrs by RNase/PI staining based flow cytometry analysis; format: functional
[20] = tested on: Hs-578T; assay: Induction of cell cycle arrest in human Hs-578T cells assessed as accumulation of cells at S phase at IC50 measured after 48 hrs by RNase/PI staining based flow cytometry analysis; format: functional
[21] = Toxicity in wild type Caenorhabditis elegans N2 assessed as effect on food consumption at 0.0001 to 50 uM measured daily for 7 days by food clearance assay; conditions: 168 h, dose 0.0001-50 µM, time 7 day
[22] = Toxicity in wild type Caenorhabditis elegans N2 assessed as drug tolerance at 0.0001 to 50 uM; conditions: dose 0.0001-50 µM
[23] = tested on: Hs-578T; assay: Antitumor activity against human Hs-578T cells implanted in chick eggs assessed as tumor growth regression at 2 times IC50 administered starting from day 13 and measured 17 days post embryo development by stereomicroscopic analysis; format: functional, cell-based; conditions: time 5.0 day
[24] = tested on: Hs-578T; assay: Antitumor activity against human Hs-578T cells implanted in chick eggs assessed as regression in tumors' perimeter at 2 times IC50 administered starting from day 13 and measured 17 days post embryo development by stereomicroscopic analysis relative to control; format: functional; conditions: time 5 day
[25] = tested on: Hs-578T; assay: Cytotoxicity against human Hs-578T cells assessed as cell viability at 10 uM incubated for 72 hrs by SRB assay relative to control; format: functional; conditions: read-out: Activity
[26] = tested on: Hs-578T; assay: Cytotoxicity against human Hs-578T cells assessed as cell viability at 30 uM incubated for 72 hrs by SRB assay relative to control; format: functional; conditions: read-out: Activity
[27] = tested on: MDA-MB-231; assay: Cytotoxicity against human MDA-MB-231 cells assessed as cell viability at 10 uM incubated for 72 hrs by SRB assay relative to control; format: functional; conditions: read-out: Activity
[28] = tested on: MDA-MB-231; assay: Cytotoxicity against human MDA-MB-231 cells assessed as cell viability at 30 uM incubated for 72 hrs by SRB assay relative to control; format: functional; conditions: read-out: Activity
[29] = tested on: MCF7; assay: Cytotoxicity against human MCF7 cells assessed as cell viability at 10 uM incubated for 72 hrs by SRB assay relative to control; format: functional; conditions: read-out: Activity
[30] = tested on: MCF7; assay: Cytotoxicity against human MCF7 cells assessed as cell viability at 30 uM incubated for 72 hrs by SRB assay relative to control; format: functional; conditions: read-out: Activity
[31] = tested on: Hs-578T; assay: Cytotoxicity against human Hs-578T cells assessed as reduction in cell viability at 10 uM incubated for 72 hrs by SRB assay relative to control; format: functional
[32] = tested on: Hs-578T; assay: Induction of apoptosis in human Hs-578T cells assessed as increase in cleaved PARP level at IC50 measured after 48 hrs by Western blot analysis; format: functional, cell-based

Structure (SMILES)	IC50 [1] [µM]	IC50 at 72 h [2] [µM]	Ratio IC50 [3]	Activity [9]	Activity [10]	Activity [11]	Activity [12]	Activity [13]	viability at 10 µM [25] [%]	viability at 30 µM [26] [%]	viability at 10 µM [27] [%]	viability at 30 µM [28] [%]	viability at 10 µM [29] [%]	viability at 30 µM [30] [%]	Activity [31] [%]	also measured
O=c1[nH]c(-c2ccccc2)nc2c1Cc1cc(Br)ccc1O2	4.5	> 60	> 12.3	Active	inactive	Active	Active	Active	40.2	21.1	62.4	52.1	39.2	36.7	~50	Activity [4]: ~40%; Activity [5]: ~70%; Activity [6]: <=50%; Activity [7]: <=99%; Activity [8]: Active; Activity [14]: Active; Activity [15]: Active; Activity [16]: Active; Activity [17]: Active; Activity [18]: inactive; Activity [19]: inactive; Activity [20]: Active; Activity [21]: Non-Toxic; Activity [22]: Non-Toxic; Activity [23]: Active; Activity [24]: 6.3%
COc1cccc2c1Oc1nc(-c3cc(C(C)(C)C)c(O)c(C(C)(C)C)c3)[nH]c(=O)c1C2	9.08	> 60	> 5.61	Active	inactive	Active	Active	Active	30	18.7	68.1	58.6	59.8	43.5	~50	Activity [32]: Active
